Data from PMC12724303 (Journal of Virology, 2025).
Read-outs that look alike come from different tables or passages of the source.

Assays:
[1] = system: Vero E6/TMPRSS2 cells; type: cell-based
Description: A solution of each CyD derivative, prepared in DMEM supplemented with 10% FBS and 1 mg/mL G-418, was filtered and sterilized using a DISMIC-25cs 0.45 µm filter. […] After 24 h, the cells were treated with CyD derivatives and further incubated for 72 h in a humidified incubator at 37°C with 5% CO₂. Cytotoxicity was assessed under a microscope.

[2] = in vitro; settings: African green monkey
[3] = system: JEV Beijing-1 variant (procoagulant activity); type: biochemical, Japanese encephalitis virus
[4] = system: red blood cells; settings: cited from earlier work
[5] = target: SARS-CoV-2 spike protein-ACE2 binding (UniProt P0DTC2+Q9BYF1)
Chain of SARS-CoV-2 spike protein-ACE2 binding (Q9BYF1 18-740, one chain of several): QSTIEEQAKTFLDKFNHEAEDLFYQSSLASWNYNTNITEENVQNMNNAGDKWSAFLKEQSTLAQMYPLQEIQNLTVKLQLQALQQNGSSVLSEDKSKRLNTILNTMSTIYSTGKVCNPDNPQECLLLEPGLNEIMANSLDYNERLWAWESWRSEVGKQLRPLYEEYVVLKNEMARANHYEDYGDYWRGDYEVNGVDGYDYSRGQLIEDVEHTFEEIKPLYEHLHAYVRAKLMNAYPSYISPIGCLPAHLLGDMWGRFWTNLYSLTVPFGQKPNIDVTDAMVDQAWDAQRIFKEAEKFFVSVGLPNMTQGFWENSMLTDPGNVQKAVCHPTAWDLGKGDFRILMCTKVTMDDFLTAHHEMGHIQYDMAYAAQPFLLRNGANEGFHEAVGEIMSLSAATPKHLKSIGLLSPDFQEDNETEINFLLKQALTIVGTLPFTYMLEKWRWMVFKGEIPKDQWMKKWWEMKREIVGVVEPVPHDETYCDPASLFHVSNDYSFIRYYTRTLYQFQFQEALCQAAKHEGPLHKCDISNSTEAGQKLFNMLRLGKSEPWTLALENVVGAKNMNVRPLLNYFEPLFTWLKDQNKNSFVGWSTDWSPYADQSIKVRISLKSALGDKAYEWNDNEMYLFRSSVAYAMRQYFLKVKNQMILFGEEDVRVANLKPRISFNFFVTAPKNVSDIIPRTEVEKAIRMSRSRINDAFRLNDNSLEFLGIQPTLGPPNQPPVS

[6] = system: Vero E6/TMPRSS2 cells; settings: CCK-8, tested up to 100 mM
[7] = system: Vero cells; type: cell-based; settings: CCK-8, tested up to 100 mM
[8] = system: Pichinde virus; settings: guinea pigs infected with Pichinde virus, treated 6-7 days after infection; cited from earlier work
[9] = Vero E6/TMPRSS2 cells, 72 h, microscope, twofold dilutions with 10 mM as highest concentration

`COC[C@H]1O[C@@H]2O[C@H]3[C@H](O)[C@@H](OC)[C@@H](O[C@H]4[C@H](O)[C@@H](OC)[C@@H](O[C@H]5[C@H](O)[C@@H](OC)[C@@H](O[C@H]6[C@H](O)[C@@H](OC)[C@@H](O[C@H]7[C@H](O)[C@@H](OC)[C@@H](O[C@H]1[C@H](O)[C@H]2OC)O[C@@H]7COC)O[C@@H]6COC)O[C@@H]5COC)O[C@@H]4COC)O[C@@H]3COC` [DM-α-CyD] showed a Highest non-toxic concentration [1, 9] of 2.50 mM.

For `COC[C@H]1O[C@@H]2O[C@H]3[C@H](O)[C@@H](OC)[C@@H](O[C@H]4[C@H](O)[C@@H](OC)[C@@H](O[C@H]5[C@H](O)[C@@H](OC)[C@@H](O[C@H]6[C@H](O)[C@@H](OC)[C@@H](O[C@H]7[C@H](O)[C@@H](OC)[C@@H](O[C@H]8[C@H](O)[C@@H](OC)[C@@H](O[C@H]1[C@H](O)[C@H]2OC)O[C@@H]8COC)O[C@@H]7COC)O[C@@H]6COC)O[C@@H]5COC)O[C@@H]4COC)O[C@@H]3COC` [DM-β-CyD, 2,6-di-O-methyl-β-cyclodextrin], the Highest non-toxic concentration ([1]; African green monkey) was 5.00 mM, the CC50 [2] was 5.74 mM and the “effect on clotting time (JEV procoagulant activity)” value (“effect on clotting time” below) ([3]; 5 mM, 37°C) was “had no effect”. For the same molecule, the “concentration causing 50% hemolysis” value [4] was 1000 µM.

For `COC[C@H]1O[C@@H]2O[C@H]3[C@H](OC(C)=O)[C@@H](OC)[C@@H](O[C@H]4[C@H](OC(C)=O)[C@@H](OC)[C@@H](O[C@H]5[C@H](OC(C)=O)[C@@H](OC)[C@@H](O[C@H]6[C@H](OC(C)=O)[C@@H](OC)[C@@H](O[C@H]7[C@H](OC(C)=O)[C@@H](OC)[C@@H](O[C@H]8[C@H](OC(C)=O)[C@@H](OC)[C@@H](O[C@H]1[C@H](OC(C)=O)[C@H]2OC)O[C@@H]8COC)O[C@@H]7COC)O[C@@H]6COC)O[C@@H]5COC)O[C@@H]4COC)O[C@@H]3COC` [DMA-β-CyD], the “effect on spike protein-ACE2 binding” value [5] was “did not interfere with this interaction”, the CC50 [6] was no less than 100 mM and the CC50 [7] was no less than 100 mM. The “effect on clotting time” value ([3]; 10 mM, 28°C) was “clotting time remained similar to that of the control”, the “effect on clotting time” value ([3]; 10 mM, 37°C) was “prolonged” and the hemolysis ([4]; at 100 mM) was “did not induce hemolysis”.

Work on `COC[C@H]1O[C@@H]2O[C@H]3[C@H](OC)[C@@H](OC)[C@@H](O[C@H]4[C@H](OC)[C@@H](OC)[C@@H](O[C@H]5[C@H](OC)[C@@H](OC)[C@@H](O[C@H]6[C@H](OC)[C@@H](OC)[C@@H](O[C@H]7[C@H](OC)[C@@H](OC)[C@@H](O[C@H]8[C@H](OC)[C@@H](OC)[C@@H](O[C@H]1[C@H](OC)[C@H]2OC)O[C@@H]8COC)O[C@@H]7COC)O[C@@H]6COC)O[C@@H]5COC)O[C@@H]4COC)O[C@@H]3COC` [TM-β-CyD] yielded a Highest non-toxic concentration [1, 9] of 1.25 mM.

For `OC[C@H]1O[C@@H]2O[C@H]3[C@H](O)[C@@H](O)[C@@H](O[C@H]4[C@H](O)[C@@H](O)[C@@H](O[C@H]5[C@H](O)[C@@H](O)[C@@H](O[C@H]6[C@H](O)[C@@H](O)[C@@H](O[C@H]7[C@H](O)[C@@H](O)[C@@H](O[C@H]1[C@H](O)[C@H]2O)O[C@@H]7CO)O[C@@H]6CO)O[C@@H]5CO)O[C@@H]4CO)O[C@@H]3CO` [α-CyD], the Highest non-toxic concentration [1, 9] was 5.00 mM.

Work on `OC[C@H]1O[C@@H]2O[C@H]3[C@H](O)[C@@H](O)[C@@H](O[C@H]4[C@H](O)[C@@H](O)[C@@H](O[C@H]5[C@H](O)[C@@H](O)[C@@H](O[C@H]6[C@H](O)[C@@H](O)[C@@H](O[C@H]7[C@H](O)[C@@H](O)[C@@H](O[C@H]8[C@H](O)[C@@H](O)[C@@H](O[C@H]1[C@H](O)[C@H]2O)O[C@@H]8CO)O[C@@H]7CO)O[C@@H]6CO)O[C@@H]5CO)O[C@@H]4CO)O[C@@H]3CO` [β-CyD] yielded a Highest non-toxic concentration [1, 9] of no less than 10.0 mM.

With `OC[C@H]1O[C@@H]2O[C@H]3[C@H](O)[C@@H](O)[C@@H](O[C@H]4[C@H](O)[C@@H](O)[C@@H](O[C@H]5[C@H](O)[C@@H](O)[C@@H](O[C@H]6[C@H](O)[C@@H](O)[C@@H](O[C@H]7[C@H](O)[C@@H](O)[C@@H](O[C@H]8[C@H](O)[C@@H](O)[C@@H](O[C@H]9[C@H](O)[C@@H](O)[C@@H](O[C@H]1[C@H](O)[C@H]2O)O[C@@H]9CO)O[C@@H]8CO)O[C@@H]7CO)O[C@@H]6CO)O[C@@H]5CO)O[C@@H]4CO)O[C@@H]3CO` [γ-CyD] the Highest non-toxic concentration [1, 9] was 2.50 mM.

Work on hydroxypropyl-α-cyclodextrin [HP-α-CyD] yielded a Highest non-toxic concentration [1, 9] of no less than 10.0 mM.

B1: bavituximab (antibody, chains of the INN, looked up, V domains shown)
VH: EVQLQQSGPELEKPGASVKLSCKASGYSFTGYNMNWVKQSHGKSLEWIGHIDPYYGDTSYNQKFRGKATLTVDKSSSTAYMQLKSLTSEDSAVYYCVKGGYYGHWYFDVWGAGTTVTVSS
VL: DIQMTQSPSSLSASLGERVSLTCRASQDIGSSLNWLQQGPDGTIKRLIYATSSLDSGVPKRFSGSRSGSDYSLTISSLESEDFVDYYCLQYVSSPPTFGAGTKLELK
In the case of B1, the animals survived [8] is given as 50%.
